Measured values: patent US20210115071A1, “NANOSCALE METAL-ORGANIC FRAMEWORKS FOR ENHANCED TUMOR CHEMORADIATION” (Oregon State University, priority 2019, published 2021)

Tests used:
[1] = Drug loading / encapsulation efficiency in Hf-BDC-PEG by HPLC; assay type: physicochemical; conditions: loaded into Hf-BDC-PEG
Method: (§1) Talazoparib and buparlisib were loaded into the Hf-BDC-PEG nMOFs by directly adding aliquots of the dissolved drugs (10 mg/mL in DMSO) at the desired concentrations into distilled water (2 mL) with the Hf-BDC-PEG nMOFs (approximately 5.0 mg) and stirred overnight. Unloaded drug(s) were removed by centrifugation and the supernatant was collected and quantified on HPLC to determine the concentration of unloaded talazoparib and buparlisib. A calibration curve for talazoparib and buparlisib was obtained using standard solutions at different concentrations and the curve was fitted with linear regression. Encapsulation efficiency was determined based on the ratio of the amount of drug loaded in Hf-BDC-PEG to the total amount added. The resulting nMOFs were dried under vacuum and stored until use. The influence of pH on drug release of talazoparib and buparlisib from the Hf-BDC-PEG nMOF was investigated using dialysis. TB@Hf-MOF (1.6 mg, 500 μL) was loaded into Slide-A-Lyzer MINI dialysis microtubes with a molecular weight cutoff of 2,000. The loaded samples were dialyzed against 12 mL of buffer (pH 5.5 or 7.4 PBS) with gentle stirring under ambient conditions. At designated time points of 0, 1, 2, 4, 24, 48, 72, 168, and 336 hours, sink samples (6 mL) were collected and replaced with fresh solution. Talazoparib and buparlisib concentrations were determined via HPLC, and drug release profiles were plotted as cumulative % of total drug release vs. time. All drug release measurements were performed in triplicate.

CT26.wt cells = assay: Free drug cytotoxicity and combination index; assay type: cell-based, Murine; conditions: for IC50 decrease in combination vs individual drug: 30:1 TMZ:Tal; for IC50: Mus musculus, CT26.WT, 72 hrs, combination as overall concentration
Method: Free drug cytotoxicity was investigated with Tal and TMZ as individual and combination agents. To determine the optimal TMZ:Tal ratio, CT26.wt cells were plated at 4×10^3 cells per well in a 96-well plate and allowed to settle overnight. Cells were then treated with TMZ (0, 10, 30, 150, 300, 600 or 1000 μM), Tal (0, 1, 5, 10, or 100 μM), or TMZ:Tal at each of the concentrations combined (ratios ranging from 1000:1 to 1:10) and incubated for 72 hrs. Combination indexes (CIs) were determined for all combinations (including only those points on the curve with Fa values between 0.1 and 0.9) using CompuSyn (ComboSyn Inc., Paramus, N.J., USA).

[2] = Drug release from TB@Hf-BDC-PEG by dialysis; assay type: physicochemical; conditions: 25° C.
Method: as §1, with “Unloaded” for “Talazoparib and buparlisib were loaded into the Hf-BDC-PEG nMOFs by directly adding aliquots of the dissolved drugs (10 mg/mL in DMSO) at the desired concentrations into distilled water (2 mL) with the Hf-BDC-PEG nMOFs (approximately 5.0 mg) and stirred overnight. Unloaded”

[3] = cited from earlier work
4T1 cells = conditions: free drug, previously reported by the inventors; read-out: individual agent IC50; cited from earlier work
[4] = Drug loading of Hf-BDC nMOF (encapsulation efficiency); assay type: physicochemical; conditions: loaded in Hf-BDC nMOF
Method: nMOFs were suspended in either 18 MΩ water (generation 1) or methanol (generation 2) at 5 mg/mL depending on colloidal stability. nMOF redispersed in water at 5 mg/mL was combined with fucoidan or dextran (both at 1 mg/mL in 18 MΩ water) at a 1:1 v/v ratio, sonicated for 1 hour, and filtered. nMOF redispersed in methanol at 5 mg/mL was combined with fucoidan or dextran (both at 1 mg/mL in 18 MΩ water) at a 1:1 v/v ratio, sonicated for 15 mins and stirred open overnight. After evaporation nMOFs were redispersed to 2.5 mg/mL nMOF in water and subsequently filtered. For drug loading, all steps remained the same except that drug dissolved in DMSO (Tal and/or TMZ or Cyanine 7.5) was added to the nMOF in water or methanol, sonicated for one hour, and washed by centrifuge twice (collecting the supernatant for quantification) before continuing with either surface coating procedure.

SMILES | Encapsulation efficiency (EE %) [1] | IC50 decrease in combination vs individual drug (CT26.wt cells) [fold] | IC50 (CT26.wt cells) [µM] | drug released within the first 24 hours ([2]; pH 5.5, PBS) | drug release after two weeks incubation ([2]; pH 7.5, PBS) | drug released within the first 24 hours ([2]; pH 7.5, PBS) [%] | log P [3] | IC50 (4T1 cells) [µM] | average encapsulation efficiencies (EE) [4] [%]
C[N+]1=C(C=CC2=CC(=CC=C3N(CCCCCC(=O)O)c4ccc5ccccc5c4C3(C)C)CCC2)C(C)(C)c2c1ccc1ccccc21.[Cl-] [Cy 7.5, cyanine 7.5 carboxylic acid] | approximately 98% | – | – | – | – | – | – | – | –
Cn1nnc2c(C(N)=O)ncn2c1=O [TMZ, temozolomide] | – | 3.3 | 34 | – | – | – | – | – | –
Nc1cc(C(F)(F)F)c(-c2cc(N3CCOCC3)nc(N3CCOCC3)n2)cn1 [buparlisib] | 14% | – | – | ~37% | ~100% | 24 | 2.13 | 4.7 | –
Cn1ncnc1[C@H]1c2n[nH]c(=O)c3cc(F)cc(c23)N[C@@H]1c1ccc(F)cc1 [talazoparib] | 77% | 14.6 | 5.1 | approximately 21% | approximately 85% | 11 | 2.93 | 1.4 | 54
